{"source": "patent US20110130425A1", "about": "“Use of H3 Histaminergic Agonists for the Treatment of Addiction to Drugs of Abuse” (priority 2009, published 2011)", "system": "alcohol-seeking responses (craving)", "experiment": "Cue-induced reinstatement of ethanol-seeking behavior", "type": "in vivo, rat", "settings": "L-histidine acute injection; rats", "procedure": "The goal of this study is to evaluate the effects of a H3 histaminergic ligand, such as L-histidine, in a gold-standard model in the alcohol field. Namely, cue-induced reinstatement of alcohol-seeking behavior in order to measure alcohol-seeking responses (craving).\nPriming and cue-induced reinstatement of ethanol-seeking behavior: Rats are trained to self-administer 10% (v/v) ethanol in a single 30 minute daily session on a Fixed Ratio 1 (FR 1) schedule. During the first three days of training, responses at the left lever are reinforced by delivery of 0.2% (w/v) saccharin solution. Following acquisition of saccharin-reinforced responding, rats are trained to self-administer ethanol. Thus, rats have access to 0.2% saccharin with 5% ethanol for one day, 5% ethanol for 1 day, 0.2% saccharin with 8% ethanol for 1 day, 8% ethanol for 1 day, 0.2% saccharin with 10% ethanol for 1 day, and 10% ethanol for 1 day. During all the training phase, responses at the right lever result in the delivery of a drop of water.\nDuring the conditioning phase, animals are trained to discriminate the availability of ethanol (reward) vs. water (non-reward). This phase starts after completion of the saccharin-fading procedure. […] The 5 second period serves as “time-out” during which responses are recorded but not reinforced. […]", "data": [{"smiles": "N[C@@H](Cc1c[nH]cn1)C(=O)O", "note": "[L-histidine]", "values": [{"measurement": "alcohol seeking (craving) induced by cues", "value": "decreases alcohol seeking"}]}]}
